Assay results: patent US11891359B2, “Prenylated psilocybin derivatives and methods of using” (ENVERIC B[…] INC., priority 2021, dated 2024)

Experiment: Solubility in the one-pot biocatalysis reaction mixture
Assay type: physicochemical
Settings: undiluted one-pot biocatalysis reaction mixture (5 mL), 30 °C, aqueous buffer; undiluted 5 mL reaction (25 mM Tris-HCl pH 8.0); dilution to 40 mL and pH 6 increased solubility
Method: Referring further to FIG. 13A, Step 1 was conducted in vitro using biocatalytic conversion. Three recombinant enzymes, the prenyl transferase PriB (SEQ.ID NO: 24), in addition to PhoNxt (SEQ.ID NO: 30), and IPKmt (SEQ.ID NO: 32) were individually expressed in E. coli using the following plasmids, respectively: pET26b(+)-PriB, pET28a(+)-IPKmt, and pET21(+)-PhoNxt. Prenyl transferase PriB (SEQ.ID NO: 24) catalyzes the stereospecific 6-prenylation of tryptophan with dimethylallyl pyrophosphate (DMAPP) as the prenyl-donor. A cDNA encoding PriB enzyme (SEQ.ID NO: 23) was synthesized and cloned into pET26b(+) vector by service provider GenScript (www.genscript.com) in-frame with a vector-encoded, N-terminal HIS epitope tag. PhoNxt (SEQ.ID NO: 30) is a non-specific acid phosphatase, while IPKmt (SEQ.ID NO: 32) is an isopentenyl phosphate kinase. Together, these two enzymes can use dimethylallyl alcohol (DMAOH) (www.sigmaaldrich.com) as the starting substrate to produce DMAPP, which in turn is a required co-substrate for PriB. cDNAs encoding IPkmt (SEQ.ID NO: 31) and PhoNxt (SEQ.ID NO: 29) were synthesized and cloned into E.coli expression vectors pET28a(+) and pET21(+), respectively using the Clonal Genes service of Twist Bioscience. Specifically, IPKmt was cloned between the NdeI and XhoI sites of pET28a(+) thus enabling an in-frame, N-terminal HIS tag in the corresponding protein. […]

Work on `CC(C)=CCc1ccc2c(C[C@H](N)C(=O)O)c[nH]c2c1` [6-dimethylallyl-tryptophan] yielded a solubility of under 1100 µg/mL.
